Measured values as given in patent EP0877031A1, “TGF-Beta1 derived peptides mimicking the activity of transforming growth factor-Beta1” (INSTITUUT VOOR DIERHOUDERIJ EN DIERGEZONDHEID (ID-DLO), priority 1997, dated 1998).

Columns and labels:
[1] = tested on: Mink lung epithelial cells (Mv 1 Lu); assay: Mv 1 Lu growth inhibition assay for agonistic TGF activity (peptides alone, acid phosphatase readout); format: cell-based; conditions: peptide alone, 5 days of incubation, acid phosphatase activity as marker for cell growth
Description: (§1) An assay for TGF-β1 biological activity, bases on Mink lung epithelial cells (Mv 1 Lu), was used for analysis of the biological activity of peptides derived from the human TGF-β1 primary sequence. This assay is based on growth inhibition of Mv 1 Lu cells in presence of TGF-β1. Inhihition of Mv 1 Lu growth is quantified by acid phosphatase activity as a marker for cell growth.
(§2) Mink lung epithelial cells (Mv 1 Lu) were plated in 96-well tissue culture plates (Costar, Cambridge, MA) at 100 cells/well in 100 µl Eagle's MEM supplemented with 20IE/ml penicillin, 1 mg/ml streptomycin, 0.4 mM L-glutamine, 10 mM HEPES and 10% FCS (HyClone, Logan, UT). Plates were incubated at 37°C and 5% CO2 in a humidified incubator for 1.5 h to allow cell attachment. After cell attachment peptides were added in a volume of 50 µl in Eagle's MEM supplemented with 20IE/ml penicillin, 1 mg/ml streptomycin, 0.4 mM L-glutamine, 10 mM HEPES and 10% FCS and titrated with eight threefold dilutions of peptide. The cells were subsequently incubated for 5 days at 37°C and 5% CO2 in a humidified incubator. After incubation cell growth was monitored using acid phosphatase activity as a marker: The plates were washed twice with 200 µl PBS per well and 100 µl of substrate solution (0.1 M sodium acetate, 0,1% Triton X-100, 3.7 mg/ml p-nitrophenyl phosphate, pH 5.5) were added to each well. The plates were then incubated for 1.5 h at 37°C, after which 25 µl of 0.4 M NaOH were added to each well. Acid phosphatase activity was detected by measuring the OD of the substrate solution using an microplate reader at 405 nm.
In this example, all peptides comprising 12 amino acids prepared as described under the head "Peptide synthesis", were tested in the Mv 1 Lu growth inhibition assay. In this assay peptides were titrated in eight threefold dilutions, starting with a peptide quantity of 10-100 µg per well. After 5 days of incubation the wells were tested for acid phosphatase activity.

[2] = tested on: Mink lung epithelial cells (Mv 1 Lu); assay: Mv 1 Lu growth inhibition assay, preincubation with peptides followed by a suboptimal quantity of TGF-β1; format: cell-based; conditions: 4 h preincubation with peptide, then suboptimal 3.3 x 10^-3 µM TGF-β1, 5 days of incubation
Description: as §1, §2
In this example Mv 1 Lu cells were preincubated with TGF-β1 derived peptides which were titrated in eight threefold dilutions, starting with a peptide quantity of 10-100 µg per well. After 4 h of preincubation a suboptimal quantity of 3.3 x 10^-3 µM TGF-β1. The TGF-β1 (R&D systems, M1) Porcine TGF-β1 is 100% homologue to humam TGF-β1 (Roberts et al. in Handbook of Experimental Pharmacology, Editors Sporn, M.B.; Robers A.B.; Springer Verlag Heidelberg (1990), 95, 419) was added. After 5 days of incubation the wells were tested for acid phosphatase activity.

Row | Sequence | growth inhibition of mink lung epithelial cells (TGF agonist activity) [1] | enhanced inhibition of the growth of mink lung epithelial cells when combined with TGF-β1 (synergistic effect) [2]
1 | CCVRQLYIDFRK | inhibited the growth of mink lung epithelial cells in a similar way as TGF-β1 does | enhanced inhibition of the growth of the mink lung epithelial cells
2 | CFSSTEKNCCVR | inhibited the growth of mink lung epithelial cells in a similar way as TGF-β1 does | 
3 | EKNCCVRQLYID | inhibited the growth of mink lung epithelial cells in a similar way as TGF-β1 does | 
4 | FSSTEKNCCVRQ | inhibited the growth of mink lung epithelial cells in a similar way as TGF-β1 does | 
5 | HNPGASAAPCCV |  | enhanced inhibition of the growth of the mink lung epithelial cells
6 | KNCCVRQLYIDF |  | enhanced inhibition of the growth of the mink lung epithelial cells
7 | LSNMIVRSCKCS | inhibited the growth of mink lung epithelial cells in a similar way as TGF-β1 does | enhanced inhibition of the growth of the mink lung epithelial cells
8 | NCCVRQLYIDFR | inhibited the growth of mink lung epithelial cells in a similar way as TGF-β1 does | enhanced inhibition of the growth of the mink lung epithelial cells
9 | QHNPGASAAPCC |  | enhanced inhibition of the growth of the mink lung epithelial cells
